This is an account of results in patent publication US12433874B2 (PRESCIENCE BIOTECHNOLOGY INC., priority 2022, dated 2025).

In series [1] the test system is CT26 cells (murine colorectal carcinoma cell). Kind of series: CT26 mouse colon cancer model. Conditions: 5-FU 25 mg/kg Q3d*4, RAP-E 25 mg/kg Q3d*4. The series is classed as in vivo.
Experimental: CT26 model on Balb/c mice was used as another animal model, classified as three groups: a control group (no drug), a comparative group (administration of 5-FU, dose: 25 mg/kg, Q3d*4) and the inventive group (administration of RAP-E formulation, dose: 25 mg/kg, Q3d*4). 6 week old Balb/c mice (BioLasco, Ilan, Taiwan) were inoculated subcutaneously with 1*10^5 CT26 cells (murine colorectal carcinoma cell). Following tumor inoculation, measuring the tumor size twice a week, and starting treatment when the tumor grows to 80-100 mm^3.
For series [2] the following is noted: BCS Class II drug; cited from earlier work.
Series [3] has as its system SKOV3 cells (human ovarian cancer cell). The series is classed as in vivo. The note with it: docetaxel 4 mg/kg Q3d*4; RAP-E 50 mg/kg Q3d*4. The text has this:
Akt and mTOR phosphorylation are frequently detected in ovarian cancer, and SKOV3, an ovarian cancer cell line, is resistant to cis-platinum and doxorubicin.

The conditions of series [4]: tablet form; cited from earlier work.

SMILES strings stand for the structures.

On to `O=c1[nH]cc(F)c(=O)[nH]1` [5-FU], for which, in series [1], the “Mean inhibition rate (tumor volume)” value is listed as 11% and the “toxicity (body weight change)” value is reported as “significant weight loss”. Further, the “Day 16 tumor inhibition rate” value in series [1] (day 16) was 26%.

On to `CO[C@H]1C[C@@H]2CC[C@@H](C)[C@@](O)(O2)C(=O)C(=O)N2CCCC[C@H]2C(=O)O[C@H]([C@H](C)C[C@@H]2CC[C@@H](O)[C@H](OC)C2)CC(=O)[C@H](C)/C=C(\C)[C@@H](O)[C@@H](OC)C(=O)[C@H](C)C[C@H](C)/C=C/C=C/C=C/1C` [Rapamycin], for which the permeability entry in series [2] is given as “high permeability”. Regarding `CC(=O)O[C@@]12CO[C@@H]1C[C@H](O)[C@@]1(C)C(=O)[C@H](O)C3=C(C)[C@@H](OC(=O)[C@H](O)[C@@H](NC(=O)OC(C)(C)C)c4ccccc4)C[C@@](O)([C@@H](OC(=O)c4ccccc4)[C@H]21)C3(C)C` [docetaxel], the “Mean inhibition rate (tumor volume)” value in series [3] was 53%.

As for `CO[C@H]1C[C@@H]2CC[C@@H](C)[C@@](O)(O2)C(=O)C(=O)N2CCCC[C@H]2C(=O)O[C@H]([C@H](C)C[C@@H]2CC[C@@H](OCCO)[C@H](OC)C2)CC(=O)[C@H](C)/C=C(\C)[C@@H](O)[C@@H](OC)C(=O)[C@H](C)C[C@H](C)/C=C/C=C/C=C/1C` [everolimus], the bioavailability in series [4] is listed as ~20%.

Broadly, the bioavailability is dose-corrected exposure relative to a reference, in per cent.
